# Target: GDP-bound KRAS protein (aa 1-169), containing both G12C and C118A amino acid substitutions (Homo sapiens, UniProt P01116, C118A/G12C)
# Assay: Coupled nucleotide exchange assay (SOS-mediated, AlphaScreen)
# Type: biochemical
# Conditions: 5 min compound pre-incubation
# GDP-bound KRAS protein (aa 1-169), containing both G12C and C118A amino acid substitutions, sequence (P01116 1-169 isoform P01116-2 G12C/C118A): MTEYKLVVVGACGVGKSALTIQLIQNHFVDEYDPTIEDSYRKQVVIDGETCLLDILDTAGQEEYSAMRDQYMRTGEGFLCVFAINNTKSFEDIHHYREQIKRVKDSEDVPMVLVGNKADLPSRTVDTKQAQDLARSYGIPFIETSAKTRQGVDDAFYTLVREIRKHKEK
row,Compound,Coupled exchange IC50 (5 min)
1,"C=CC(=O)N1CCN(c2nc(=O)n(-c3c(F)cccc3C(C)C)c3nc(-c4ccccc4F)c(F)cc23)[C@@H](C)C1 (single isomer, unassigned) [Example 59-3-2]",33 | nda μM
2,"C=CC(=O)N1CCN(c2nc(=O)n(-c3c(CC)cccc3CC)c3nc(-c4cccnc4)c(Cl)cc23)[C@@H](C)C1 [Example 55-28, 6-chloro-1-(2,6-diethylphenyl)-4-((2S)-2-methyl-4-(2-propenoyl)-1-piperazinyl)-7-(3-pyridinyl)pyrido[2,3-d]pyrimidin-2(1H)-one]",12.9 | nda μM
3,"C=CC(=O)N1CCN(c2nc(=O)n(-c3c(C)cccc3CC)c3nc(-c4ccccc4F)c(F)cc23)[C@@H](C)C1 (single isomer, unassigned) [Example 57-13-2]",8.13 | nda μM
4,"C=CC(=O)N1CCN(c2nc(=O)n(-c3c(C4CC4)ccnc3C)c3nc(-c4c(O)cccc4F)c(F)cc23)[C@@H](C)C1 (single isomer, unassigned) [Example 58-19-1]",4.06 | nda μM
5,"C=CC(=O)N1CCN(c2nc(=O)n(-c3c(CC)cccc3CC)c3nc(-c4ccccc4F)c(Cl)cc23)[C@@H](C(=O)O)C1 [Example 96, (2R)-1-(6-Chloro-1-(2,6-diethylphenyl)-7-(2-fluorophenyl)-2-oxo-1,2-dihydropyrido[2,3-d]pyrimidin-4-yl)-4-(2-propenoyl)-2-piperazinecarboxylic acid]",4.85 | nda μM
6,"C=CC(=O)N1CCN(c2nc(=O)n(-c3ccccc3C)c3nc(Cl)c(Cl)cc23)[C@@H](C)C1 [Example 60-12, 6,7-dichloro-1-(2-methylphenyl)-4-((2S)-2-methyl-4-(2-propenoyl)-1-piperazinyl)pyrido[2,3-d]pyrimidin-2(1H)-one]",22.2 | nda μM
7,"C=CC(=O)N1CCN(c2nc(=O)n(-c3c(C)nc(C)nc3C(C)C)c3nc(-c4c(O)cccc4F)c(Cl)cc23)[C@@H](C)C1 (single isomer, unassigned) [Example 55-4-2]",0.642 | nda μM
8,"C=CC(=O)N1CCN(c2nc(=O)n(-c3c(C)ccnc3C(C)C)c3nc(-c4cc(F)ccc4O)c(F)cc23)C(C)C1 (atropisomer, axis not shown; (M)) [Example 72-1, (M)-6-Fluoro-7-(5-fluoro-2-hydroxyphenyl)-1-(4-methyl-2-(2-propanyl)-3-pyridinyl)-4-((2S)-2-methyl-4-(2-propenoyl)-1-piperazinyl)pyrido[2,3-d]pyrimidin-2(1H)-one]",1.17 | nda μM
9,"C=CC(=O)N1CCN(c2nc(=O)n(-c3ccccc3C(C)C)c3nc(-c4ncc(F)cc4F)c(Cl)cc23)[C@@H](C)C1 [Example 54-93, 6-chloro-7-(3,5-difluoro-2-pyridinyl)-4-((2S)-2-methyl-4-(2-propenoyl)-1-piperazinyl)-1-(2-(2-propanyl)phenyl)pyrido [2,3-d]pyrimidin-2(1H)-one]",1.43 | nda μM
10,"C=CC(=O)N1CCN(c2nc(=O)n(-c3ccccc3C(C)C)c3nc(N4CCCCC4)c(Cl)cc23)[C@@H](C)C1 (single isomer, unassigned) [Example 69-1-1]",44.1 | nda μM
11,C=CC(=O)N1C[C@@H](C)N(c2nc(=O)n(-c3c(C(C)C)ncnc3C(C)C)c3nc(-c4ccccc4F)c(Cl)cc23)[C@H](C)C1 [Example 87-3],17.3 | nda μM
12,"C=CC(=O)N1CCN(c2nc(=O)n(-c3c(C)ccnc3CC)c3nc(-c4ccccc4F)c(F)cc23)[C@@H](C)C1 (single isomer, unassigned) [Example 57-16-2]",7.56 | nda μM
13,"C=CC(=O)N1CCN(c2nc(=O)n(-c3c(C)cnn3C(C)(C)C)c3nc(-c4ccccc4F)c(Cl)cc23)[C@@H](C)C1 (single isomer, unassigned) [Example 55-38-1]",0.534 | nda μM
14,"C=CC(=O)N1C[C@@H]2C[C@H]1CN2c1nc(=O)n(-c2ccccc2C(C)C)c2nc(-c3c(O)cccc3F)c(Cl)cc12 [Example 54-50, 4-((1S,4S)-5-acryloyl-2,5-diazabicyclo [2.2.1]heptan-2-yl)-6-chloro-7-(2-fluoro-6-hydroxyphenyl)-1-(2-isopropylphenyl) pyrido [2,3-d]pyrimidin-2(1H)-one]",88.8 | nda μM
15,"C=CC(=O)N1CCN(c2nc(=O)n(-c3ccccc3C(C)C)c3nc(C4=CCCCC4)c(Cl)cc23)[C@@H](C)C1 (single isomer, unassigned) [Example 54-75-2]",10.6 | nda μM
16,"C=CC(=O)N1CCN(c2nc(=O)c(-c3ccccc3C(C)C)c3cc(-c4ccccc4F)c(C)nn23)CC1 [Example 81-2, 3-(2-fluorophenyl)-2-methyl-5-(2-(2-propanyl)phenyl)-8-(4-(2-propenoyl)-1-piperazinyl)-6H-pyrimido[1,6-b]pyridazin-6-one]",14.1 | nda μM

row,Compound,Coupled exchange IC50 (5 min)
1,"C=CC(=O)N1CCN(c2nc(=O)n(C)c3nc(-c4ccccc4F)c(Cl)cc23)[C@@H](C)C1 [Example 55-33, 6-chloro-7-(2-fluorophenyl)-1-methyl-4-((2S)-2-methyl-4-(2-propenoyl)-1-piperazinyl)pyrido[2,3-d]pyrimidin-2(1H)-one]",45.8 | nda μM
2,"C=CC(=O)N1CCN(c2nc(=O)n(-c3ccccc3C(C)C)c3nc(-c4cc(OC(F)F)ccc4F)c(Cl)cc23)[C@@H](C)C1 (single isomer, unassigned) [Example 54-51-2]",1.84 | nda μM
3,"C=CC(=O)N1CCN(c2nc(=O)n(-c3c(O)cccc3C(C)C)c3nc(-c4ccccc4F)c(Cl)cc23)[C@@H](C)C1 (single isomer, unassigned) [Example 55-26-1]",36.9 | nda μM
4,"C=CC(=O)N1CCN(c2nc(=O)n(-c3ccccc3S(F)(F)(F)(F)F)c3nc(-c4c(O)cccc4F)c(Cl)cc23)[C@@H](C)C1 (single isomer, unassigned) [Example 56-1-1]",5.29 | nda μM
5,"C=CC(=O)N1C[C@@H](C)N(c2nc(=O)n(-c3c(C)ccnc3C(C)C)c3nc(-c4c(N)cccc4F)c(Cl)cc23)[C@H](C)C1 (atropisomer, axis not shown; (M)) [Example 73-18, (M)-7-(2-amino-6-fluorophenyl)-6-chloro-4-((2R,6R)-2,6-dimethyl-4-(2-propenoyl)-1-piperazinyl)-1-(4-methyl-2-(2-propanyl)-3-pyridinyl)pyrido[2,3-d]pyrimidin-2(1H)-one]",5.54 | nda μM
6,"C=CC(=O)N1CCN(c2nc(=O)n(-c3c(C(N)=O)cccc3C(C)C)c3nc(-c4ccccc4F)c(Cl)cc23)[C@@H](C)C1 (single isomer, unassigned) [Example 142-1]",23.9 | nda μM
7,"C=CC(=O)N1CCN(c2nc(OC)c(-c3ccccc3C)c3nc(-c4ccccc4F)c(Cl)cc23)[C@@H](C)C1 [Example 134, 1-((3S)-4-(3-Chloro-2-(2-fluorophenyl)-7-methoxy-8-(2-methylphenyl)-1,6-naphthyridin-5-yl)-3-methyl-1-piperazinyl)-2-propen-1-one]",1.95 | nda μM
8,"C=CC(=O)N1CCN(c2nc(=O)n(-c3c(C)cccc3C(C)C)c3nc(-c4ccccc4F)c(C)cc23)[C@@H](C)C1 (single isomer, unassigned) [Example 102-1]",3.45 | nda μM
9,"C=CC(=O)N1CCN(c2nc(=O)n(-c3c(C)ncnc3C(C)C)c3nc(-c4cc(F)ccc4F)c(Cl)cc23)[C@@H](C)C1 (single isomer, unassigned) [Example 55-39-1]",1.795 | nda μM
10,"C=CC(=O)N1CCN(c2nc(=O)n(-c3c(CC)cccc3CC)c3nc(N4CC[C@H](F)C4)c(Cl)cc23)[C@@H](C)C1 [Example 66-6, 6-chloro-1-(2,6-diethylphenyl)-7-((3S)-3-fluoro-1-pyrrolidinyl)-4-((2S)-2-methyl-4-(2-propenoyl)-1-piperazinyl)pyrido[2,3-d]pyrimidin-2(1H)-one]",14.9 | nda μM
11,"C=CC(=O)N1CCN(c2nc(=O)n(C)c3nc(-c4c(C)ccc5[nH]ncc45)c(Cl)cc23)[C@@H](C)C1 [Example 55-36, 6-chloro-1-methyl-7-(5-methyl-1H-indazol-4-yl)-4-((2S)-2-methyl-4-(2-propenoyl)-1-piperazinyl)pyrido[2,3-d]pyrimidin-2(1H)-one]",38.6 | nda μM
12,"C=CC(=O)N1CCN(c2nc(=O)n(-c3scnc3C3CC3)c3nc(-c4ccccc4F)c(Cl)cc23)[C@@H](C)C1 [Example 56-4, 6-chloro-1-(4-cyclopropyl-1,3-thiazol-5-yl)-7-(2-fluorophenyl)-4-((2S)-2-methyl-4-(2-propenoyl)-1-piperazinyl)pyrido[2,3-d]pyrimidin-2(1H)-one]",5.32 | nda μM
13,"C=CC(=O)N1CCN(c2cc(=O)n(CC(C)(C)C)c3nc(-c4ccccc4F)c(Cl)cc23)CC1 [Example 122, 6-Chloro-1-(2,2-dimethylpropyl)-7-(2-fluorophenyl)-4-(4-(2-propenoyl)-1-piperazinyl)-1,8-naphthyridin-2(1H)-one]",5.29 | nda μM
14,"C=CC(=O)N1CCN(c2nc(=O)n(-c3ccccc3C(C)C)c3nc(-c4cc(O)ccc4F)c(Cl)cc23)[C@@H](C)C1 (single isomer, unassigned) [Example 54-88-2]",1.36 | nda μM
15,"C=CC(=O)N1CCN(c2nc(=O)n(-c3c(C4CC4)ccnc3C)c3nc(-c4ccccc4F)c(F)cc23)[C@@H](C)C1 (single isomer, unassigned) [Example 58-20-1]",16.2 | nda μM

# Source: US11090304B2 (Amgen Inc., priority 2018, dated 2021)
